According to patent publication US12550899B2, “Topramezone derivative and use thereof” (priority 2023, dated 2026):

Tests used:
Format in all cases: in vivo
[1] = system: test weeds (grassy weeds, sedge, broadleaf weeds); test: Laboratory bioactivity efficacy test 2.1, symptoms on the test weeds; conditions: test 2.1 weeds
Excerpt: (§1) Refer to the “Pesticides guidelines for laboratory bioactivity tests Part 4: Foliar spray application test for herbicide activity, NY/T 1155.4-2006”.
(§2) • grassy weeds: Setaria viridis, Chloris virgata; • sedge: Cyperus rotundus; • Broadleaf weeds: Amaranthus retroflexus, Chenopodium album, Acalypha australis, Commelina communis, Convolvulus arvensis, Cirsium setosum, and Eclipta prostrata. 2.1.3 Test Conditions
(§3) The soil used for the test was a mixture of surface 20 cm loam and vermiculite, mixed in a volume ratio of 3:1 to form a culture soil. The test corn was cultured in a glass greenhouse with a temperature ranging from 25° C. to 35° C. and under natural light.
(§4) A measured quantity of weed seeds were sown in plastic pots with a diameter of 9 cm, and covered with 1-2 mm of soil. The ports were then placed in enamel trays filled with water, and watered by bottom irrigation. After sowing, the pots were transferred to the glass greenhouse for cultivation and growth.
(§5) Five dosages were set for Compound I, Compound II and the control herbicide Topramezone, which were 3.75, 7.5, 15, 30 and 60 grams of active ingredient per hectare respectively. In addition, a blank control was also prepared.
(§6) The required amount of the herbicide was accurately measured out, an appropriate amount of emulsifier and organic solvent were added to dissolve the herbicide, and then a certain amount of water was added therein until the herbicide was diluted to the required dosage by using the serial dilution method for standby.
(§7) The fresh weight of each treatment was surveyed 14 days after the application of the herbicide. The fresh weight control efficacy was calculated according to the following formula: fresh weight control efficacy (%)=(control fresh weight−treatment fresh weight)/control fresh weight×100.

[2] = system: Echinochloa crusgalli; test: Laboratory bioactivity efficacy test 2.2 (foliar spray); conditions: fresh weight control efficacy 20 days post-application
Procedure: (§8) • grassy weeds: Digitaria sanguinalis, Eleusine indica, Echinochloa crusgalli; • Broadleaf weeds: Portulaca oleracea, Abutilon theophrasti medicus. 2.2.2 Test Conditions
(§9) The soil used for the test was a mixture of surface 20 cm loam and vermiculite, mixed in a volume ratio of 3:1 to form a culture soil. The test weeds were cultured in a glass greenhouse with a temperature ranging from 25° C. to 35° C. and under natural light.
(§10) Quantified seeds of Digitaria sanguinalis, Eleusine indica, Echinochloa crusgalli, Portulaca oleracea, and Abutilon theophrasti medicus were sown in plastic pots with a diameter of 9 cm, and covered with 1-2 mm of soil. The ports were then placed in enamel trays filled with water, and watered by bottom irrigation. After the water seeped to the soil surface, the pots were transferred to the glass greenhouse for standby.
as §5
(§11) The required amount of the herbicide was accurately measured out and directly added with water, which was diluted to the required dosage by using the serial dilution method for standby.
(§12) The test was conducted on grassy weeds at the two-leaf and one-heart stage, Abutilon theophrasti medicus at the 2-true-leaf stage, and Portulaca oleracea at the 3-5-leaf stage, with the stems and leaves both sprayed uniformly. The ASS-4 automatic control spraying system with a fan-shaped nozzle was used indoors for herbicide application. Depending on the nozzle pressure and flow rate, 50 mL of herbicide solution was applied to a spraying area of 1.1 m^2 (which was equivalent to the water consumption of 30 L per mu). The system's operating speed was calibrated. The plastic pots to be treated were arranged evenly on the spraying platform to ensure uniform treatment. The spray pressure was set to 0.35 MPa, and the flow rate of the fan-shaped nozzle was set to 800 mL/min. The spraying was carried out in sequence from the low dosage to the high dosage. Each treatment was repeated two to four times.
(§13) The herbicide was applied once. After spraying, the pots were air-dried for one day and then placed in the glass greenhouse. Regular watering was conducted to maintain moisture.
(§14) The damage symptoms of the weeds (such as growth inhibition, chlorosis, malformation, etc.) were carefully recorded at 3, 7, 10, and 20 days after herbicide application. A visual comparison of the herbicide effectiveness was made. At 20 days post-application, the fresh weight of the aboveground parts of the weeds from each treatment group was measured, and the fresh weight control efficacy was calculated.
(§15) The treatment results were calculated according to the following formula: weed fresh weight control efficacy (%)=(control fresh weight−treatment fresh weight)/control fresh weight×100.
(§16) A DPS statistical software was used to conduct regression analysis on the logarithmic values of the herbicide dosage and the probit values of the weed fresh weight control efficacy, and the correlation coefficient, GR50, GR90, and the 95% confidence interval were calculated.

[3] = system: Eleusine indica; test: as above; conditions: fresh weight control efficacy 20 days post-application
Procedure: as §8, §9, §10, §5, §11, §12, §13, §14, §15, §16

[4] = system: Portulaca oleracea; test: as above; conditions: fresh weight control efficacy 20 days post-application
Procedure: as §8, §9, §10, §5, §11, §12, §13, §14, §15, §16

[5] = system: Abutilon theophrasti medicus; test: as above
Procedure: as §8, §9, §10, §5, §11, §12, §13, §14, §15, §16

[6] = system: Digitaria sanguinalis; test: as above; conditions: fresh weight control efficacy 20 days post-application
Procedure: as §8, §9, §10, §5, §11, §12, §13, §14, §15, §16

[7] = system: Eclipta prostrata; test: Laboratory bioactivity efficacy test 2.1 (foliar spray); conditions: fresh weight control efficacy 14 days after application
Excerpt: as §1, §2, §3, §4, §5, §6, §7
(§17) A DPS statistical software was used to conduct regression analysis on the logarithmic values of the herbicide dosage and the probit values of the corn fresh weight control efficacy, and the correlation coefficient, GR50, GR90, and the 95% confidence interval were calculated.

[8] = system: Cirsium setosum; test: as above; conditions: fresh weight control efficacy 14 days after application
Excerpt: as §1, §2, §3, §4, §5, §6, §7, §17

[9] = system: Chenopodium album; test: as above; conditions: fresh weight control efficacy 14 days after application
Excerpt: as §1, §2, §3, §4, §5, §6, §7, §17

[10] = system: Cyperus rotundus; test: as above; conditions: fresh weight control efficacy 14 days after application
Excerpt: as §1, §2, §3, §4, §5, §6, §7, §17

[11] = system: Acalypha australis; test: as above; conditions: fresh weight control efficacy 14 days after application
Excerpt: as §1, §2, §3, §4, §5, §6, §7, §17

[12] = system: Chloris virgata; test: as above; conditions: fresh weight control efficacy 14 days after application
Excerpt: as §1, §2, §3, §4, §5, §6, §7, §17

[13] = system: Setaria viridis; test: as above; conditions: fresh weight control efficacy 14 days after application
Excerpt: as §1, §2, §3, §4, §5, §6, §7, §17

[14] = system: Convolvulus arvensis; test: as above; conditions: fresh weight control efficacy 14 days after application
Excerpt: as §1, §2, §3, §4, §5, §6, §7, §17

[15] = system: Amaranthus retroflexus; test: as above; conditions: fresh weight control efficacy 14 days after application
Excerpt: as §1, §2, §3, §4, §5, §6, §7, §17

[16] = system: Commelina communis; test: as above; conditions: fresh weight control efficacy 14 days after application
Excerpt: as §1, §2, §3, §4, §5, §6, §7, §17

[17] = Abutilon theophrasti Medicago, fresh weight control efficacy 20 days post-application

## Cc1c(C(=O)c2cnn(C)c2O)ccc(S(C)(=O)=O)c1C1=NOCC1 [Topramezone]
[1]
  Symptoms on the test weeds: clear pesticidal efficacy symptoms
[2]
  GR50: 6.52 g a.i./ha
  GR90: 12.92 g a.i./ha
[3]
  GR50: 2.75 g a.i./ha
  GR90: 16.07 g a.i./ha
[4]
  GR50 (95% confidence interval): 7.56 (6.00-9.07) g a.i./ha
  GR90 (95% confidence interval): 35.74 (29.42-46.03) g a.i./ha
[5]; 3 to 7 days after application, broadleaf weeds like Abutilon theophrasti medicus
  Visual observation of weeds: directly dried up and died
[5]; [17]
  GR50 (95% confidence interval): 2.02 (0.77-3.38) g a.i./ha
  GR90 (95% confidence interval): 8.83 (6.22-11.10) g a.i./ha
[6]
  GR50: 10.09 g a.i./ha
  GR90: 36.27 g a.i./ha
[7]
  GR50: 6.33 g a.i./ha
  GR90: 23.72 g a.i./ha
[8]
  GR50: 15.89 g a.i./ha
  GR90: 49.41 g a.i./ha
[9]
  GR50: 3.22 g a.i./ha
  GR90: 12.76 g a.i./ha
[10]
  GR50: 16.11 g a.i./ha
  GR90: 39.22 g a.i./ha
[11]
  GR50: 5.27 g a.i./ha
  GR90: 16.92 g a.i./ha
[12]
  GR50: 3.33 g a.i./ha
  GR90: 15.81 g a.i./ha
[13]
  GR50: 6.72 g a.i./ha
  GR90: 19.16 g a.i./ha
[14]
  GR50: 4.63 g a.i./ha
  GR90: 66.46 g a.i./ha
[15]
  GR50: 4.05 g a.i./ha
  GR90: 11.29 g a.i./ha
[16]
  GR50: 14.38 g a.i./ha
  GR90: 40.29 g a.i./ha
